Assays:
Test in all cases: relative viability (nuclei count vs DMSO), 5 days (fraction); higher = more cells survive
A549 = tested on: A549
Method in brief: (§1)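 Dosing by pin tool came one day after lung cancer cell lines were seeded in 1536-well plates, using either one drug or a fixed anchor-drug dose plus five library-drug doses (not always all listed) in √10 steps. After 5 days, nuclei were counted on 4× images. Relative viability is treated-well nuclei count divided by vehicle-well nuclei count, and values are medians of duplicate plates.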

Calu-6 = tested on: Calu-6
Method in brief: as §1

EBC-1 = tested on: EBC-1
Method in brief: as §1

IA-LM = tested on: IA-LM
Method in brief: as §1

LCLC-97TM1 = tested on: LCLC-97TM1
Method in brief: as §1

NCI-H1299 = tested on: NCI-H1299
Method in brief: as §1

NCI-H1355 = tested on: NCI-H1355
Method in brief: as §1

NCI-H1648 = tested on: NCI-H1648
Method in brief: as §1

NCI-H1703 = tested on: NCI-H1703
Method in brief: as §1

NCI-H1993 = tested on: NCI-H1993
Method in brief: as §1

NCI-H23 = tested on: NCI-H23
Method in brief: as §1

NCI-H322M = tested on: NCI-H322M
Method in brief: as §1

NCI-H596 = tested on: NCI-H596
Method in brief: as §1

UMC-11 = tested on: UMC-11
Method in brief: as §1

SMILES: Cc1sc2c(c1C)C(c1ccc(Cl)cc1)=N[C@@H](CC(=O)OC(C)(C)C)c1nnc(C)n1-2 [JQ1] + O=C(c1cc(Cc2n[nH]c(=O)c3ccccc23)ccc1F)N1CCN(C(=O)C2CC2)CC1 [Olaparib] (partner 8 µM)
- relative viability (A549; first compound 0.04 µM): 0.303
- relative viability (A549; first compound 0.1265 µM): 0.213
- relative viability (A549; first compound 0.4 µM): 0.255
- relative viability (A549; first compound 1.265 µM): 0.102
- relative viability (A549; first compound 4 µM): 0.045
- relative viability (Calu-6; first compound 0.04 µM): 0.536
- relative viability (Calu-6; first compound 0.1265 µM): 0.408
- relative viability (Calu-6; first compound 0.4 µM): 0.511
- relative viability (Calu-6; first compound 1.265 µM): 0.251
- relative viability (Calu-6; first compound 4 µM): 0.249
- relative viability (EBC-1; first compound 0.04 µM): 0.74
- relative viability (EBC-1; first compound 0.1265 µM): 0.473
- relative viability (EBC-1; first compound 0.4 µM): 0.312
- relative viability (EBC-1; first compound 1.265 µM): 0.093
- relative viability (EBC-1; first compound 4 µM): 0.113
- relative viability (IA-LM; first compound 0.04 µM): 0.739
- relative viability (IA-LM; first compound 0.1265 µM): 0.508
- relative viability (IA-LM; first compound 0.4 µM): 0.17
- relative viability (IA-LM; first compound 1.265 µM): 0.115
- relative viability (IA-LM; first compound 4 µM): 0.117
- relative viability (LCLC-97TM1; first compound 0.04 µM): 0.354
- relative viability (LCLC-97TM1; first compound 0.1265 µM): 0.297
- relative viability (LCLC-97TM1; first compound 0.4 µM): 0.297
- relative viability (LCLC-97TM1; first compound 1.265 µM): 0.149
- relative viability (LCLC-97TM1; first compound 4 µM): 0.108
- relative viability (NCI-H1299; first compound 0.04 µM): 0.931
- relative viability (NCI-H1299; first compound 0.1265 µM): 0.787
- relative viability (NCI-H1299; first compound 0.4 µM): 0.972
- relative viability (NCI-H1299; first compound 1.265 µM): 0.298
- relative viability (NCI-H1299; first compound 4 µM): 0.235
- relative viability (NCI-H1355; first compound 0.04 µM): 0.626
- relative viability (NCI-H1355; first compound 0.1265 µM): 0.697
- relative viability (NCI-H1355; first compound 0.4 µM): 0.643
- relative viability (NCI-H1355; first compound 1.265 µM): 0.403
- relative viability (NCI-H1355; first compound 4 µM): 0.344
- relative viability (NCI-H1648; first compound 0.04 µM): 0.66
- relative viability (NCI-H1648; first compound 0.1265 µM): 1.03
- relative viability (NCI-H1648; first compound 0.4 µM): 0.462
- relative viability (NCI-H1648; first compound 1.265 µM): 0.485
- relative viability (NCI-H1648; first compound 4 µM): 0.289
- relative viability (NCI-H1703; first compound 0.04 µM): 0.458
- relative viability (NCI-H1703; first compound 0.4 µM): 0.498
- relative viability (NCI-H1703; first compound 1.265 µM): 0.236
- relative viability (NCI-H1703; first compound 4 µM): 0.234
- relative viability (NCI-H1993; first compound 0.04 µM): 0.922
- relative viability (NCI-H1993; first compound 0.1265 µM): 0.994
- relative viability (NCI-H1993; first compound 0.4 µM): 1.1
- relative viability (NCI-H1993; first compound 1.265 µM): 0.807
- relative viability (NCI-H1993; first compound 4 µM): 0.584
- relative viability (NCI-H23; first compound 0.04 µM): 0.329
- relative viability (NCI-H23; first compound 0.1265 µM): 0.341
- relative viability (NCI-H23; first compound 0.4 µM): 0.162
- relative viability (NCI-H23; first compound 1.265 µM): 0.179
- relative viability (NCI-H23; first compound 4 µM): 0.127
- relative viability (NCI-H322M; first compound 0.04 µM): 0.597
- relative viability (NCI-H322M; first compound 0.1265 µM): 0.933
- relative viability (NCI-H322M; first compound 0.4 µM): 0.654
- relative viability (NCI-H322M; first compound 1.265 µM): 0.536
- relative viability (NCI-H322M; first compound 4 µM): 0.461
- relative viability (NCI-H596; first compound 0.04 µM): 0.618
- relative viability (NCI-H596; first compound 0.1265 µM): 0.499
- relative viability (NCI-H596; first compound 0.4 µM): 0.367
- relative viability (NCI-H596; first compound 1.265 µM): 0.326
- relative viability (NCI-H596; first compound 4 µM): 0.321
- relative viability (UMC-11; first compound 0.04 µM): 0.359
- relative viability (UMC-11; first compound 0.1265 µM): 0.282
- relative viability (UMC-11; first compound 0.4 µM): 0.268
- relative viability (UMC-11; first compound 1.265 µM): 0.142
- relative viability (UMC-11; first compound 4 µM): 0.0941
